Like-named read-outs stand apart in the source and are kept apart here.
How the values were obtained:
[1] = amide bond, DMF
[2] = molecular target: CFTR-mediated chloride transport in human intestinal epithelial enteroid cells (Homo sapiens, UniProt P13569); assay: Membrane potential dye, Enteroid Assay A; format: cell-based; conditions: for Ent. A Max Activity: % of chloride transport of triple combination control: 3 μM (S)-N-((6-aminopyridin-2-yl)sulfonyl)-6-(3-fluoro-5-isobutoxyphenyl)-2-(2,2,4-trimethylpyrrolidin-1-yl)nicotinamide, 3 μM tezacaftor, 300 nM acute ivacaftor
Protocol: Base medium (ADF+++) consisted of Advanced DMEM/Ham's F12, 2 mM Glutamax, 10 mM HEPES, […] penicillin/streptomycin.
Intestinal enteroid maintenance medium (IEMM) consisted of ADF+++, 1×B27 supplement, 1×N2 supplement, 1.25 mM N-acetyl cysteine, 10 mM Nicotinamide, 50 ng/mL hEGF, 10 nM Gastrin, 1 μg/mL hR-spondin-1, 100 ng/mL hNoggin, TGF-b type 1 inhibitor A-83-01, 100 μg/mL Primocin, 10 μM P38 MAPK inhibitor SB202190.
Bath 1 Buffer consisted of 1 mM MgCl2, 160 mM NaCl, 4.5 mM KCl, 10 mM HEPES, 10 mM Glucose, 2 mM CaCl2).
Chloride Free Buffer consisted of 1 mM Magnesium Gluconate, 2 mM Calcium Gluconate, 4.5 mM Potassium Gluconate, 160 mM Sodium Gluconate, 10 mM HEPES, 10 mM Glucose.
BathI Dye Solution consisted of Bath 1 Buffer, 0.04% Pluronic F127, 20 μM Methyl Oxonol, 30 μM CaCCinh-A01, 30 μM Chicago Sky Blue.
Chloride Free Dye Solution consisted of Chloride Free Buffer, 0.04% Pluronic F127, 20 μM Methyl Oxonol, 30 μM CaCCinh-A01, 30 μM Chicago Sky Blue.
Chloride Free Dye Stimulation Solution consisted of Chloride Free Dye Solution, 10 μM forskolin, 100 μM IBMX, and 300 nM Compound III.
Human intestinal epithelial enteroid cells were obtained from the Hubrecht Institute for Developmental Biology and Stem Cell Research, Utrecht, The Netherlands and expanded in T-Flasks as previously described (Dekkers J F, Wiegerinck C L, de Jonge H R, Bronsveld I, Janssens H M, de Winter-de Groot K M, Brandsma A M, de Jong N W M, Bijvelds M J C, Scholte B J, Nieuwenhuis E E S, van den Brink S, Clevers H, van der Ent C K, Middendorp S and M Beekman J M. A functional CFTR assay using primary cystic fibrosis intestinal organoids. Nat Med. 2013 July; 19(7):939-45.).
Cells were recovered in cell recovery solution, collected by centrifugation at 650 rpm for 5 minutes at 4° C., resuspended in TrypLE and incubated for 5 minutes at 37° C. Cells were then collected by centrifugation at 650 rpm for 5 minutes at 4° C. and resuspended in IEMM containing 10 μM ROCK inhibitor (RI). The cell suspension was passed through a 40 μm cell strainer and resuspended at 1×10^6 cells/mL in IEMM containing 10 μM RI. Cells were seeded at 5000 cells/well into multi-well plates and incubated for overnight at 37° C., 95% humidity and 5% CO2 prior to assay.
Enteroid cells were incubated with test compound in IEMM for 18-24 hours at 37° C., 95% humidity and 5% C02. […] Briefly, cells were washed 5 times in Bath 1 Buffer. Bath 1 Dye Solution was added, and the cells were incubated for 25 minutes at room temperature. Following dye incubation, cells were washed 3 times in Chloride Free Dye Solution. Chloride transport was initiated by addition of Chloride Free Dye Stimulation Solution and the fluorescence signal was read for 15 minutes. […] Chloride transport was then expressed as a percentage of the chloride transport following treatment with 3 μM (S)—N-((6-aminopyridin-2-yl)sulfonyl)-6-(3-fluoro-5-isobutoxyphenyl)-2-(2,2,4-trimethylpyrrolidin-1-yl)nicotinamide, 3 μM (R)-1-(2,2-difluorobenzo[d][1,3]dioxol-5-yl)-N-(1-(2,3-dihydroxypropyl)-6-fluoro-2-(1-hydroxy-2-methylpropan-2-yl)-1H-indol-5-yl)cyclopropanecarboxamide and 300 nM acute N-[2,4-bis(1,1-dimethylethyl)-5-hydroxyphenyl]-1,4-dihydro-4-oxoquinoline-3-carboxamide triple combination control (% Activity).

[3] = molecular target: T1, CFTR-mediated short-circuit current in F508del/MF-HBE cells (Homo sapiens, UniProt P13569, DEL508-508); assay: HBE assay: Ussing chamber assay of CFTR-mediated short-circuit currents; format: cell-based; conditions: 20% human serum; for HBE Activity at 10 μM: single fixed concentration of 10 μM in combination with 1 μM Ivacaftor; for HBE Activity at 10 μM / EC50: 18-24 hours; for HBE Max. activity / EC50: F508del/MF-HBE; for HBE Max. activity: in combination with 1 μM Ivacaftor, compared to known Vertex corrector with 18 μM Tezacaftor and 1 μM Ivacaftor; for EC50: range of concentrations in combination with 1 μM Ivacaftor
T1 construct: endogenous in cells; host or cells: primary human bronchial epithelial cells from CF subjects (F508del/MF)
Protocol: Ussing chamber experiments were performed using human bronchial epithelial (HBE) cells derived from CF subjects heterozygous for F508del and a minimal function CFTR mutation (F508del/MF-HBE) and cultured as previously described (Neuberger T, Burton B, Clark H, Van Goor F Methods Mol Biol 2011:741:39-54). After four days the apical media was removed, and the cells were grown at an air liquid interface for >14 days prior to use.
To isolate the CFTR-mediated short-circuit (ISC) current, F508del/MF-HBE grown on Costar® Snapwell™ cell culture inserts were mounted in an Ussing chamber and the transepithelial ISC was measured under voltage-clamp recording conditions (Vhold=0 mV) at 37° C. The basolateral solution contained (in mM) 145 NaCl, 0.83K2HPO4, 3.3 KH2PO4, 1.2 MgCl2, 1.2 CaCl2), 10 Glucose, 10 HEPES (pH adjusted to 7.4 with NaOH) and the apical solution contained (in mM) 145 NaGluconate, 1.2 MgCl2, 1.2 CaCl2), 10 glucose, 10 HEPES (pH adjusted to 7.4 with NaOH) and 30 μM amiloride to block the epithelial sodium channel. Forskolin (20 μM) was added to the apical surface to activate CFTR, followed by apical addition of a CFTR inhibitor cocktail consisting of BPO, GlyH-101, and CFTR inhibitor 172 (each at 20 μM final assay concentration) to specifically isolate CFTR currents. The CFTR-mediated ISC (μA/cm^2) for each condition was determined from the peak forskolin response to the steady-state current following inhibition.
The activity of the CFTR corrector compounds on the CFTR-mediated ISC was determined in Ussing chamber studies as described above. The F508del/MF-HBE cell cultures were either incubated with the corrector compounds at a range of concentrations in combination with 1 μM Ivacaftor or were incubated with the corrector compounds at a single fixed concentration of 10 μM in combination with 1 μM Ivacaftor for 18-24 hours at 37° C. and in the presence of 20% human serum. The concentration of corrector compounds with 1 μM Ivacaftor during the 18-24 hours incubations was kept constant throughout the Ussing chamber measurement of the CFTR-mediated ISC to ensure compounds were present throughout the entire experiment.

T1 sequence (P13569 with tags, fused parts or gaps DEL508-508): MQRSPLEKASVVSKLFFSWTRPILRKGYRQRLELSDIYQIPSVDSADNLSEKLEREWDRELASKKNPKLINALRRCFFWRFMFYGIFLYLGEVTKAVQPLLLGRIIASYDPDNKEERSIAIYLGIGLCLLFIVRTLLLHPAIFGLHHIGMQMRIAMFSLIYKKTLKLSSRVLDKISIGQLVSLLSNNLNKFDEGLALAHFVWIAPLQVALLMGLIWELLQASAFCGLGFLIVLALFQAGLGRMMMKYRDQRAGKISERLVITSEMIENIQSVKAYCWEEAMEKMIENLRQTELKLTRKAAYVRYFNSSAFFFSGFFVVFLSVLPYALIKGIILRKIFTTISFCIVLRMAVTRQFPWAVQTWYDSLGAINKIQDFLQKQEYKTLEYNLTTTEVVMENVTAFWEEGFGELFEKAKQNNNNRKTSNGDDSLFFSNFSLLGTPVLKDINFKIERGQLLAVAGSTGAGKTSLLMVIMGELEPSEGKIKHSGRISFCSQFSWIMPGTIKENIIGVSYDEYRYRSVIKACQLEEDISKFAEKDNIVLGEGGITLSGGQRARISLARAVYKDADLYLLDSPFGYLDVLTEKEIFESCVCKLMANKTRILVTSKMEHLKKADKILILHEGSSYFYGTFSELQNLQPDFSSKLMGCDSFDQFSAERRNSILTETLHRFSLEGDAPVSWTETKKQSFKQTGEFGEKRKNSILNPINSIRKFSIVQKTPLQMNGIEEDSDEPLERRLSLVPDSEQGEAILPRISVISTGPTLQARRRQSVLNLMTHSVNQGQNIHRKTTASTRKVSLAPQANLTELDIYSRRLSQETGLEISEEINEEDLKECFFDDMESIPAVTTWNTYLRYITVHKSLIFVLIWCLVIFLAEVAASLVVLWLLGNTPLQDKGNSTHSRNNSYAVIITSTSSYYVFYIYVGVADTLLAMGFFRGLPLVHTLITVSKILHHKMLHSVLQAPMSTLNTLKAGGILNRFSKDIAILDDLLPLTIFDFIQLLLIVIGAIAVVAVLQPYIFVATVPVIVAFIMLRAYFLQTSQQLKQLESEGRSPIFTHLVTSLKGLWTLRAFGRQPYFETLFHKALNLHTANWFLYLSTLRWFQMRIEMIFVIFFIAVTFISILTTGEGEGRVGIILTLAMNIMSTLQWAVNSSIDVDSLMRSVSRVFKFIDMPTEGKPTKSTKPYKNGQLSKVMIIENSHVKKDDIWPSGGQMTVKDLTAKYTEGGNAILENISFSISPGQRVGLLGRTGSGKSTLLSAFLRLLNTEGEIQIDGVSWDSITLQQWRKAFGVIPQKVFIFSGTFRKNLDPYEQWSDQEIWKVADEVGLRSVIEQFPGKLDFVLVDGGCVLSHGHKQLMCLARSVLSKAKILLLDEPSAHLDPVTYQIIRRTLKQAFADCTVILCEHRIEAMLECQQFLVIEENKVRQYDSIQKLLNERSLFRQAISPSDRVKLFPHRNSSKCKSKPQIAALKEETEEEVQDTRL
Chain of CFTR-mediated chloride transport in human intestinal epithelial enteroid cells (P13569 with tags, fused parts or gaps DEL508-508): as above

## Cc1cccc(C)c1-c1cc2nc(n1)NS(=O)(=O)c1cccc(c1)C(=O)NCCN2CC(C)C [Compound 39, 6-(2,6-Dimethylphenyl)-9-isobutyl-2,2-dioxo-2 λ6-thia-3,5,9,12,19-pentazatricyclo[12.3.1.14,8]nonadeca-1(18),4(19),5,7,14,16-hexaen-13-one]
[1]; from Cc1cccc(C)c1-c1cc(N(CCN)CC(C)C)nc(NS(=O)(=O)c2cccc(C(=O)O)c2)n1, 13-membered ring, HATU/Et3N, 25.3 mM, 25.0 °C, 0.5 h
  ring closure, yield after HPLC: 35%
[2]
  Ent. A Max Activity: + (+ is <30%)

## Cc1cccc(C)c1-c1cc2nc(n1)NS(=O)(=O)c1cccc(c1)C(=O)NC(CC(C)C)CN2 (stereo not drawn) [Compound 37, 6-(2,6-Dimethylphenyl)-11-isobutyl-2,2-dioxo-2 λ6-thia-3,5,9,12,19-pentazatricyclo[12.3.1.14,8]nonadeca-1(18),4(19),5,7,14,16-hexaen-13-one]
[1]; from Cc1cccc(C)c1-c1cc(NCC(N)CC(C)C)nc(NS(=O)(=O)c2cccc(C(=O)O)c2)n1, 13-membered ring, HATU/Et3N, 50.6 mM, 0.5 h
  ring closure, yield after HPLC: 67%
[2]
  Ent. A Max Activity: + (+ is <30%)

## Cc1cccc(C)c1-c1cc2nc(n1)NS(=O)(=O)c1cccc(c1)C(=O)N(C1CC3(CC3)C1)[C@H](CC(C)(C)C)CC2 [Compound 63]
[3]
  HBE Activity at 10 μM: +++ (+++ is >60%)

## Cc1cccc(C)c1-c1cc2nc(n1)NS(=O)(=O)c1cccc(c1)C(=O)N(Cc1ncc(OC(C)C)cn1)[C@H](CC(C)C)CC2 [Compound 58]
[3]
  HBE Max. activity: +++ (+++ is >60%)
  EC50: < 1000 nM

## Cc1cccc(C)c1-c1cc2nc(n1)NS(=O)(=O)c1cccc(c1)C(=O)N(Cc1ncc(OC(C)C)cn1)[C@H](CC(C)(C)C)CC2 [Compound 62, (11S)-6-(2,6-Dimethylphenyl)-11-(2,2-dimethylpropyl)-12-[(5-isopropoxypyrimidin-2-yl)methyl]-2,2-dioxo-2 λ6-thia-3,5,12,19-tetrazatricyclo[12.3.1.14,8]nonadeca-1(18),4(19),5,7,14,16-hexaen-13-one]
[1]; from Cc1cccc(C)c1-c1cc(CC[C@@H](CC(C)(C)C)NCc2ncc(OC(C)C)cn2)nc(NS(=O)(=O)c2cccc(C(=O)O)c2)n1, 13-membered ring, CDMT/NMM, 47.5 mM, 18.0 h
  ring closure, yield after HPLC: 79%
[3]
  HBE Max. activity: +++ (+++ is >60%)
  EC50: < 1000 nM

## Cc1cccc(C)c1-c1cc2nc(n1)NS(=O)(=O)c1cccc(c1)C(=O)N[C@H](C)CN2Cc1ccccc1 [Compound 38, (11R)-9-benzyl-6-(2,6-dimethylphenyl)-11-methyl-2,2-dioxo-2λ6-thia-3,5,9,12,19-pentazatricyclo[12.3.1.14,8]nonadeca-1(18),4(19),5,7,14,16-hexaen-13-one]
[1]; from Cc1cccc(C)c1-c1cc(N(Cc2ccccc2)C[C@@H](C)N)nc(NS(=O)(=O)c2cccc(C(=O)O)c2)n1, 13-membered ring, HATU/Et3N, 44.7 mM, 25.0 °C, 16.0 h
  ring closure, yield after HPLC: 23%
[2]
  Ent. A Max Activity: + (+ is <30%)

## Cc1cccc(C)c1-c1cc2nc(n1)NS(=O)(=O)c1cccc(c1)C(=O)N([C@H]1CC3(C1)C[C@H](C(C)(C)O)C3)[C@H](CC(C)(C)C)CC2 (single isomer, unassigned) [Compound 66]
[3]
  HBE Activity at 10 μM: +++ (+++ is >60%)

## Cc1cccc(C)c1-c1cc2nc(n1)NS(=O)(=O)c1cccc(c1)C(=O)N(Cc1ncc(OC3CCC3)cn1)[C@H](CC(C)(C)C)CC2 [Compound 64, (11S)-12-[[5-(Cyclobutoxy)pyrimidin-2-yl]methyl]-6-(2,6-dimethylphenyl)-11-(2,2-dimethylpropyl)-2,2-dioxo-2λ6-thia-3,5,12,19-tetrazatricyclo[12.3.1.14,8]nonadeca-1(18),4(19),5,7,14,16-hexaen-13-one]
[1]; from Cc1cccc(C)c1-c1cc(CC[C@@H](CC(C)(C)C)NCc2ncc(OC3CCC3)cn2)nc(NS(=O)(=O)c2cccc(C(=O)O)c2)n1, 13-membered ring, CDMT/NMM, 44.1 mM, 17.0 h
  ring closure, yield after HPLC: 73%
[3]
  HBE Activity at 10 μM: +++ (+++ is >60%)

## Cc1cccc(C)c1-c1cc2nc(n1)NS(=O)(=O)c1cccc(c1)C(=O)N(Cc1ncc(OC3CCC3)cn1)[C@H](CC(C)C)CC2 [Compound 59]
[3]
  HBE Max. activity: +++ (+++ is >60%)
  EC50: < 1000 nM

## Cc1cccc(C)c1-c1cc2nc(n1)NS(=O)(=O)c1cccc(c1)C(=O)NCC1(CCCCC1)CN2 [Compound 40, 6-(2,6-Dimethylphenyl)-2,2-dioxo-spiro[2 λ6-thia-3,5,9,13,20-pentazatricyclo[13.3.1.14,8]icosa-1(19),4(20),5,7,15,17-hexaene-11,1′-cyclohexane]-14-one]
[1]; from Cc1cccc(C)c1-c1cc(NCC2(CN)CCCCC2)nc(NS(=O)(=O)c2cccc(C(=O)O)c2)n1, 14-membered ring, HATU/Et3N, 58.9 mM, 0.5 h
  ring closure, yield after HPLC: 33%
[2]
  Ent. A Max Activity: + (+ is <30%)
[2]; enteroid cells, 18-24 hours incubation, acute 10 μM forskolin and 300 nM ivacaftor, read-out: Ent. A EC50
  EC50: 1000 to 3000 nM

## Cc1cccc(C)c1-c1cc2nc(n1)NS(=O)(=O)c1cccc(c1)C(=O)N([C@H]1CC3(C1)C[C@H](C(C)(C)O)C3)[C@H](CC(C)(C)C)CC2 (single isomer, unassigned) [Compound 65]
[3]
  HBE Activity at 10 μM: +++ (+++ is >60%)
